Source: BindingDB's records for doi:10.1016/s0960-894x(00)00163-3 (Glaxosmithkline, 2000)

Target: T1, Dimer of Gag-Pol polyprotein [501-599,Q508K,L534I,L564I,C568A,C596A] (Human immunodeficiency virus 1, UniProt P03367, C568A/C596A/L534I/L564I/Q508K)
T1 construct: 501-599
Assay: Protease Inhibition Assay
Conditions: pH 6.4; 25 °C
Description: The Ki values were determined using fluorogenic substrate, 2-(aminobenzoyl)-Thr-Ile-Nle-Phe(p-NO2)-Gln-ArgNH2. A standard curve relating changes in fluorescent intensity to changes in concentration of product was used to convert fluorescent changes into molar velocities. The amount of cleavage was determined by HPLC.

O=C(N[C@H]1c2ccccc2C[C@H]1O)[C@H](Cc1ccccc1)C[C@H](O)CN1C(=O)[C@H](Cc2ccccc2)C[C@@H]1Cc1ccccc1 [(2R,4S)-2-benzyl-5-[(3R,5R)-3,5-dibenzyl-2-oxopyrrolidin-1-yl]-4-hydroxy-N-[(1S,2R)-2-hydroxy-2,3-dihydro-1H-inden-1-yl]pentanamide]
Ki: > 0.5 nM
